The values below come from patent publication US10905691B2, “Use of triazolo(4,5-d)pyrimidine derivatives for prevention and treatment of bacterial infection” (Universite de Liege, priority 2016, dated 2021).

The subject of assay [1] is E. faecalis vancomycin-resistant (VRE) ATCC BAA-2365. As to the kind of experiment: MBC and MDK99.9 determination (CFU counting). Conditions: for MBC: Enterococcus faecalis, cut-off 99.9% reduction in CFU. In kind it is cell-based, Enterococcus faecalis. The method, then: Further experiments were conducted using different strains of E. faecalis, as clinically relevant Gram-positive bacterial strains: E. faecalis vancomycin-resistant (VRE) ATCC BAA-2365, and E. faecalis ATCC 29212 in order to determine the Minimal Inhibitory Concentration (MIC) which is the minimal concentration required to prevent bacterial growth; the Minimal Bactericidal Concentration (MBC) which determines the lowest concentration at which an antimicrobial agent kill a particular microorganism and a Minimum Duration for killing 99.9% bacteria (MDK99.9) which is a tolerance metric according to the EUCAST.
MBC and MDK99.9 determination: A single colony selected from the different strains of E. faecalis is resuspended and cultured in the appropriate medium (TSB, or BHI) overnight (O/N) in aerobic conditions (37° C. with 220 rpm shaking), next day a 1:100 inoculum in the appropriate medium was incubated in aerobic conditions for 2 h. The culture is then challenged with triafluocyl at MIC concentration or higher concentrations. Bacterial growth was measured after different time intervals by counting the colony-forming units after plating appropriate culture dilutions on BHI agar plates. […] And the real time needed is defined as the MDK99.9. MBC for Triafluocyl against E. faecalis vancomycin-resistant (VRE) ATCC BAA-2365 was 20 μg/ml. MDK99.9 for Triafluocyl against E. faecalis vancomycin-resistant (VRE) ATCC BAA-2365 was 24 hours.
For MBC determination a 1:100 inoculum of an O/N culture (prepared like before) was incubated in aerobic conditions for 2 h in bacteria-specific medium. The culture was then challenged with Fluometacyl at the MIC concentration or higher. Bacterial growth was measured after different time intervals by counting the colony-forming units (CFU) after plating appropriate culture dilutions on bacteria-specific medium agar plates.

Assay [2] has as its system Escherichia coli (ATCC 8739). The assay can be described thus: MIC determination with or without C12(ω7)Kβ12 (OAK). Format: cell-based. Conditions: for MIC: Escherichia coli, ATCC8739, in presence of 5 μg/ml OAK; for inhibition of Escherichia coli growth: taken alone at a concentration of 10 μg/ml.
Excerpt: Determination of Minimal Inhibitory Concentration (MIC) and Minimal Bactericidal Concentration (MBC) of Triafluocyl (purchased from Cayman Chemical, Item No. 15425) in presence of C12(ω7)Kβ12 (purchased from biomers.net, Germany) against Escherichia coli (ATCC 8739). The C12(ω7)Kβ12 was synthesized by solid-phase method as described by I. Radzishevsky in Antimicrobial Agents and Chemotherapy, May 2007 (1753-1759) (https://aac.asm.org/content/51/5/1753).
(§1) A single colony of Escherichia coli grown on a Luria-Bertani (LB) agar plate is resuspended and cultured in LB medium overnight (O/N) in aerobic conditions (37° C. with 220 rpm shaking in the New Brunswick Innova 4330 Shaker incubator). An aliquot of 100 μl such overnight Escherichia coli culture is diluted 1:50 in 5 ml Mueller-Hintom broth (MHB) and is incubated in aerobic conditions during 1 hour 30 minutes (OD=0.08-0.1) to reach the exponential phase of their growth curve. An inoculum of the exponentially growing Escherichia coli, corresponding to around 1×10^6 c.f.u./ml is then incubated in presence or absence of different concentrations of Triafluocyl in 2% DMSO with or without OAK for 24 hr in aerobic conditions (37° C. with 220 rpm shaking in the New Brunswick Innova 4330 Shaker incubator). Growth of Escherichia coli in each condition depicted in FIG. 13A is evaluated by reading the Optical Density of each culture at 600 nm (OD600) in a spectrophotometer (Victor-3, Perkin Elmer).
Determination of Minimal Inhibitory Concentration (MIC) and Minimal Bactericidal Concentration (MBC) of Fluometacyl (prepared according to WO 99/05143) in presence of C12(ω7)Kβ12 (purchased from biomers.net, Germany) against Escherichia coli (ATCC 8739). The C12(ω7)Kβ12 was synthesized by solid-phase method as described by I. Radzishevsky in Antimicrobial Agents and Chemotherapy, May 2007 (1753-1759) (https://aac.asm.org/content/51/5/1753).
as §1, with “An inoculum of the exponentially growing Escherichia coli, corresponding to around 1×10^6 c.f.u./ml is then incubated in presence or absence of different concentrations of Triafluocyl in 2% DMSO with or without OAK for 24 hr in aerobic conditions (37° C. with 220 rpm shaking in the New Brunswick Innova 4330 Shaker incubator).” left out, “14A” for “13A”

SMILES strings stand for the structures.

For the compound `CCCSc1nc(N[C@@H]2C[C@H]2c2ccc(F)c(F)c2)c2nnn([C@@H]3C[C@H](O)[C@@H](O)[C@H]3O)c2n1` [Fluometacyl, (1S,2R,3S,4R)-4-[7-[[(1R,2S)-2-(3,4-Difluorophenyl)cyclopropyl]amino]-5-(propylthio)-3H-1,2,3-triazolo[4,5-d]pyrimidin-3-yl]-1,2,3-cyclopentanetriol], the MBC in assay [1] came to 38 µM. Moreover, in assay [2], the MIC stood at 5 µg/mL and the “inhibition of Escherichia coli growth” value is “unable to inhibit E. coli growth”.
For `CCCSc1nc(N[C@@H]2C[C@H]2c2ccc(F)c(F)c2)c2nnn([C@@H]3C[C@H](OCCO)[C@@H](O)[C@H]3O)c2n1` [Triafluocyl, (1S,2S,3R,5S)-3-[7-[(1R,2S)-2-(3,4-difluorophenyl)cyclopropylamino]-5-(propylthio)-3H-[1,2,3]-triazolo[4,5-d]pyrimidin-3-yl]-5-(2-hydroxyethoxy)-1,2-cyclopentanediol], in assay [1], the “MDK 99.9 Time (h) needed to kill 99.9% of the started inoculum” value worked out at 24 h and the MBC was found to be 20 µg/mL. Moreover, in assay [2], the minimum inhibitory concentration (MIC) came out at 5 µg/mL and the “inhibition of Escherichia coli growth” value is listed as “unable to inhibit Escherichia coli growth”.

As a reminder, the MBC is the lowest tested concentration that kills the bacteria rather than only halting them. A lower MBC goes with greater bactericidal potency. By MIC is commonly meant the smallest concentration in the dilution series that meets the test's criterion for growth inhibition.
